ChEMBL document CHEMBL1148370, “Studies toward the discovery of the next generation of antidepressants. 3. Dual 5-HT1A and serotonin transporter affinity within a class of N-aryloxyethylindolylalkylamines” (J Med Chem, 2004)

Experiments:
[1] = molecular target: T1, Adrenergic receptor alpha-1 (Rattus norvegicus, UniProt P15823+P23944+P43140)
T1 sequence (P15823 whole entry): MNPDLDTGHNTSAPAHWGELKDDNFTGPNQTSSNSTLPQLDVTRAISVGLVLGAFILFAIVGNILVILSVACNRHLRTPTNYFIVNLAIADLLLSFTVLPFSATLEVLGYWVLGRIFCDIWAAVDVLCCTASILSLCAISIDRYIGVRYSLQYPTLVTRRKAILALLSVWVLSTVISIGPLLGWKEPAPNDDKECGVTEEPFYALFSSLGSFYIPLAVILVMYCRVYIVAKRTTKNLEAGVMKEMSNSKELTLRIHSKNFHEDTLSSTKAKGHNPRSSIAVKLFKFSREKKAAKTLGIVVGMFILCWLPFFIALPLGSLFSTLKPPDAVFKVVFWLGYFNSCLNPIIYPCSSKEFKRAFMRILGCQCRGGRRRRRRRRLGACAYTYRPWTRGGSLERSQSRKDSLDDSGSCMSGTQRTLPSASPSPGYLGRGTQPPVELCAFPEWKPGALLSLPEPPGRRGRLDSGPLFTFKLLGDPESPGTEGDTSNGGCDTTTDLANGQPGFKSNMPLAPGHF
T1 sequence (P23944 whole entry): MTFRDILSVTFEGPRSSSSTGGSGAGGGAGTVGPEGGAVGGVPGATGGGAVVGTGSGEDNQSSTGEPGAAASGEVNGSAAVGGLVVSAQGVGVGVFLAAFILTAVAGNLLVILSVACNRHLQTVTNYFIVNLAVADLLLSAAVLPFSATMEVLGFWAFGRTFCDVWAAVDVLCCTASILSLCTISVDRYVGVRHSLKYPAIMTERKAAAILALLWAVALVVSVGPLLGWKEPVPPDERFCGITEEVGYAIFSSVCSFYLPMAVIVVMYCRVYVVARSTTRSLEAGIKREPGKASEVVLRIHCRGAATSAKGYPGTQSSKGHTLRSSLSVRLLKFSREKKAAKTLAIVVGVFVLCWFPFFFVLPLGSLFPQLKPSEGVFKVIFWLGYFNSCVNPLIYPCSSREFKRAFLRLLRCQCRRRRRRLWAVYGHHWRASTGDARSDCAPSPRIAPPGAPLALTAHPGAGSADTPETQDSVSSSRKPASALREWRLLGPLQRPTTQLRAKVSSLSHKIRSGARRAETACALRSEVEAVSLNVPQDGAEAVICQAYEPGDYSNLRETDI
T1 sequence (P43140 whole entry): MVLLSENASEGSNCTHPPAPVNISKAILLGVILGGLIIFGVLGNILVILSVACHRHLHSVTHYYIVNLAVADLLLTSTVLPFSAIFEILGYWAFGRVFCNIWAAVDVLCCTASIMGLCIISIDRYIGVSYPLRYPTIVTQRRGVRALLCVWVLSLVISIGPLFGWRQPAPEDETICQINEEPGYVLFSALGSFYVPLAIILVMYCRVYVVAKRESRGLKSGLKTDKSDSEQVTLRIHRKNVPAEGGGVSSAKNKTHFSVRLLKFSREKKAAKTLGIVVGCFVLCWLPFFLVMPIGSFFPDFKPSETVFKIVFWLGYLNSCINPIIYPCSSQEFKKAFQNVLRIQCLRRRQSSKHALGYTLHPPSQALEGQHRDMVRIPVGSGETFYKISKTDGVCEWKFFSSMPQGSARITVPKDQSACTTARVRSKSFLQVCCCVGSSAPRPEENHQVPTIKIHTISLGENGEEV
Description: Binding affinity against rat cortical alpha-1 adrenergic receptor labeled with [3H]prazosin radioligand

[2] = molecular target: Sodium-dependent serotonin transporter (Rattus norvegicus, UniProt P31652)
Description: Binding affinity against serotonin transporter in rat cortical tissues using radioligand [3H]paroxetine

[3] = molecular target: Sodium-dependent serotonin transporter (Homo sapiens, UniProt P31645); format: cell-based, JAR
Description: Inhibition concentration against [3H]5-HT uptake by human serotonin transporter in JAR cells

[4] = molecular target: Adrenergic receptor alpha-1 (Rattus norvegicus) (UniProt P15823+P23944+P43140); assay: Percent inhibition against rat cortical alpha-1 adrenergic receptor labeled with [3H]prazosin radioligand was determined; format: protein assay; settings: concentration not given here

Sodium-dependent serotonin transporter (Homo sapiens, UniProt P31645), sequence (P31645 whole entry): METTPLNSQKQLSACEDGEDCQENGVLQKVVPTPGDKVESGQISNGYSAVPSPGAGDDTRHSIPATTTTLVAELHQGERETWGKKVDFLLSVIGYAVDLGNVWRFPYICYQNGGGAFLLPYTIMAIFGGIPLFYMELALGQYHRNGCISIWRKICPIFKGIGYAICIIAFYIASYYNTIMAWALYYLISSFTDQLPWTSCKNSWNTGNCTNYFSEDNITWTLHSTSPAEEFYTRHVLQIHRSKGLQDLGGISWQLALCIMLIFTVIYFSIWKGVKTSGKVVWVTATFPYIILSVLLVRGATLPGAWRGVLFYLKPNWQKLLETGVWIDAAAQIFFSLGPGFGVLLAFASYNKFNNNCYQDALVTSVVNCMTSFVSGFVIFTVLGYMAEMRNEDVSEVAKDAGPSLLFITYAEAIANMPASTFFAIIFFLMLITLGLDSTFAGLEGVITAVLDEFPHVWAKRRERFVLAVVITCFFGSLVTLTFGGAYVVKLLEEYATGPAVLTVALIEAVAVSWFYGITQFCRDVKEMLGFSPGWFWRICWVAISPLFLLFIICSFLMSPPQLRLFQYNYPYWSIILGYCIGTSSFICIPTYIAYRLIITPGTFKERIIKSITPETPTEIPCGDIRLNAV
Sodium-dependent serotonin transporter (Rattus norvegicus, UniProt P31652), sequence (P31652 whole entry): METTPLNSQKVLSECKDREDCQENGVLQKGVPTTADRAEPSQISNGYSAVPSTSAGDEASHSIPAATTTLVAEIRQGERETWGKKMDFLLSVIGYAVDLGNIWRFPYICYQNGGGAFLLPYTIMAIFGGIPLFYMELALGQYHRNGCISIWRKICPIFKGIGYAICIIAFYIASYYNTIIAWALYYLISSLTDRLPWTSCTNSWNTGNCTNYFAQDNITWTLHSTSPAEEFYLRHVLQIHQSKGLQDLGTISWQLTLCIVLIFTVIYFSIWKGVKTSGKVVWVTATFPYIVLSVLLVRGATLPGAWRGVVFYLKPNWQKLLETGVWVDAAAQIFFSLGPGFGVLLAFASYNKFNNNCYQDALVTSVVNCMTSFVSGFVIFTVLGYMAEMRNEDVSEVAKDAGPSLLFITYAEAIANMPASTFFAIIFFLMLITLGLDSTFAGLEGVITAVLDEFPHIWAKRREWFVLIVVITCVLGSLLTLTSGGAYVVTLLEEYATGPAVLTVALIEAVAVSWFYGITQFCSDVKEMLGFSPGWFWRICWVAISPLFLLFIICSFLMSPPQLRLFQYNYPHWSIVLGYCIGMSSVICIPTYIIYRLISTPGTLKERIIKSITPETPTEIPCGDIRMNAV

Row | SMILES | Ki [1] | Ki [2] | IC50 [3] | inhibition [4]
1 | Fc1cc2c(c(OCCNCCCc3c[nH]c4ccc(F)cc34)c1)OCC2 | 0.0092 µM | 0.00117 µM | 0.0615 µM | 
2 | COc1ccccc1OCCNCCCCc1c[nH]c2ccccc12 | 0.1 µM |  |  | 99%
3 | c1ccc2c(CCCNCCOc3cccc4[nH]ccc34)c[nH]c2c1 | 0.1 µM |  | 0.154 µM | 89%
4 | Fc1ccc2[nH]cc(CCCNCCOc3cccc4ncccc34)c2c1 | 0.122 µM | 0.0011 µM | 0.073 µM | 
5 | c1ccc2c(OCCNCCCc3c[nH]c4ccccc34)cccc2c1 | 0.204 µM | 0.123 µM | 2.17 µM | 
6 | Fc1ccc2[nH]cc(CCCNCCOc3cccc4ccoc34)c2c1 | 0.0277 µM |  | 0.0281 µM | 
7 | Fc1cc(OCCNCCCc2c[nH]c3ccc(F)cc23)c2occc2c1 | 0.0343 µM | 0.0022 µM |  | 
8 | Fc1ccc2[nH]cc(CCCNCCOc3cccc4[nH]cnc34)c2c1 | 0.1 µM |  |  | 93%
9 | Fc1ccc2[nH]cc(CCCNCCOc3ccccc3)c2c1 | 0.0034 µM | 0.12 µM | 3.79 µM | 
10 | Fc1cc2c(c(OCCNCCc3c[nH]c4ccccc34)c1)OCCC2 | 0.0044 µM |  | 0.0422 µM | 
11 | Fc1cc2c(c(OCCNCCCc3c[nH]c4ccc(F)cc34)c1)OCCC2 | 0.1 µM |  | 0.007 µM | 79%
12 | Fc1ccc2[nH]cc(CCCNCCOc3cccc4c3OCCO4)c2c1 | 0.0096 µM |  | 0.0063 µM | 
13 | Fc1cc2c(c(OCCNCCc3c[nH]c4ccc(F)cc34)c1)OCCC2 | 0.0119 µM |  | 0.0864 µM | 
14 | COc1ccc(F)cc1OCCNCCCc1c[nH]c2ccc(F)cc12 | 0.0025 µM |  | 0.0205 µM | 
15 | c1ccc2c(CCCCNCCOc3cccc4[nH]ccc34)c[nH]c2c1 |  |  | 0.862 µM | 
16 | COc1ccc(F)cc1OCCNCCc1c[nH]c2ccc(F)cc12 | 0.0048 µM | 0.0235 µM |  | 
17 | Fc1cc(OCCNCCCc2c[nH]c3ccc(F)cc23)c2c(c1)OCCO2 | 0.0133 µM | 0.00049 µM | 0.0246 µM | 
18 | Fc1ccc2[nH]cc(CCCNCCOc3cccc4c3CCCC4)c2c1 |  |  | 0.305 µM | 
19 | Fc1ccc2[nH]cc(CCCNCCOc3cccc4[nH]ccc34)c2c1 | 0.0056 µM |  | 0.0244 µM | 
20 | COc1ccccc1OCCNCCCc1c[nH]c2ccc(F)cc12 |  |  | 0.02 µM | 95%
21 | Fc1ccc2[nH]cc(CCCNCCOc3cccc4nccnc34)c2c1 | 0.052 µM | 0.0012 µM | 0.02 µM | 
22 | Fc1ccc2[nH]cc(CCCNCCOc3cccc4c3OCC4)c2c1 | 0.1 µM |  | 0.0097 µM | 85%
23 | Fc1ccc2[nH]cc(CCNCCOc3cccc4c3OCCO4)c2c1 | 0.1 µM | 0.0135 µM | 0.0847 µM | 80%
24 | COc1ccc(F)cc1OCCNCCc1c[nH]c2ccccc12 | 0.0033 µM | 0.043 µM | 0.249 µM | 
25 | Fc1ccc2[nH]cc(CCCNCCOc3cc(Cl)cc4[nH]cnc34)c2c1 | 0.0046 µM |  | 0.0045 µM | 
26 | Fc1cc2c(c(OCCNCCc3c[nH]c4ccc(F)cc34)c1)OCC2 | 0.1 µM |  | 0.254 µM | 85%
27 | c1cnc2c(OCCNCCCc3c[nH]c4ccccc34)cccc2c1 | 0.0074 µM |  |  | 
